Assay: molar heat capacity at constant pressure
Details: 100 kPa, Crystal, DSC

O=C(O)c1cc(O)c(O)c(O)c1 [3,4,5-trihydroxybenzoic acid]
Details | molar heat capacity at constant pressure [J/K/mol]
263.15 K | 178.8
264.15 K | 179.31
265.15 K | 179.82
266.15 K | 180.5
267.15 K | 181.18
268.15 K | 181.86
269.15 K | 182.54
270.15 K | 183.05
271.15 K | 183.73
272.15 K | 184.41
273.15 K | 184.92
274.15 K | 185.77
275.15 K | 185.6
276.15 K | 186.96
277.15 K | 187.3
278.15 K | 188.15
279.15 K | 188.49
280.15 K | 189
281.15 K | 189.34
282.15 K | 189.85
283.15 K | 190.36
284.15 K | 191.21
285.15 K | 191.55
286.15 K | 192.24
287.15 K | 193.09
288.15 K | 193.6
289.15 K | 194.28
290.15 K | 194.79
291.15 K | 195.64
292.15 K | 196.32
293.15 K | 197
294.15 K | 197.51
295.15 K | 198.19
296.15 K | 198.7
297.15 K | 199.38
298.15 K | 199.55
299.15 K | 200.06
300.15 K | 200.57
301.15 K | 201.25
302.15 K | 201.76
303.15 K | 202.44
304.15 K | 203.12
305.15 K | 203.8
306.15 K | 204.31
307.15 K | 204.65
308.15 K | 205.33
309.15 K | 206.18
310.15 K | 206.7
311.15 K | 207.04
312.15 K | 207.38
313.15 K | 208.23
314.15 K | 208.91
315.15 K | 209.08
316.15 K | 209.76
317.15 K | 210.61
318.15 K | 211.12
319.15 K | 211.46
320.15 K | 211.8
321.15 K | 212.14
322.15 K | 212.99
323.15 K | 211.97
324.15 K | 212.22
325.15 K | 212.9
326.15 K | 213.59
327.15 K | 214.27
328.15 K | 214.61
329.15 K | 215.09
330.15 K | 215.6
331.15 K | 216.11
332.15 K | 216.39
333.15 K | 216.9
334.15 K | 217.47
335.15 K | 217.92
336.15 K | 217.16
337.15 K | 217.71
338.15 K | 218.35
339.15 K | 218.99
340.15 K | 219.58
341.15 K | 220.09
342.15 K | 220.69
343.15 K | 221.58
344.15 K | 220.47
345.15 K | 220.64
346.15 K | 221.55
347.15 K | 222.29
348.15 K | 222.74
349.15 K | 223.31
350.15 K | 223.76
351.15 K | 224.44
352.15 K | 225.58
353.15 K | 224.69
354.15 K | 225.11
355.15 K | 225.75
356.15 K | 226.47
357.15 K | 226.9
358.15 K | 227.28
359.15 K | 227.92
360.15 K | 228.68
361.15 K | 229.15
362.15 K | 229.7
363.15 K | 229.83
364.15 K | 230.21
365.15 K | 230.81
366.15 K | 231.19
367.15 K | 233.29
368.15 K | 233.91
369.15 K | 234.54
370.15 K | 234.94
371.15 K | 235.6
372.15 K | 236.24
373.15 K | 236.91
374.15 K | 237.55
375.15 K | 238.16
376.15 K | 238.86
377.15 K | 239.45
378.15 K | 240.16
379.15 K | 240.81
380.15 K | 241.44
381.15 K | 242.11
382.15 K | 242.78
383.15 K | 243.42
384.15 K | 244.06
385.15 K | 244.7
386.15 K | 245.37
387.15 K | 246.02
388.15 K | 246.65
389.15 K | 247.32
390.15 K | 248.01
391.15 K | 248.58
392.15 K | 249.14
393.15 K | 249.71
394.15 K | 250.27
395.15 K | 250.84
396.15 K | 251.4
397.15 K | 251.97
398.15 K | 252.44
399.15 K | 253.11
400.15 K | 253.68
401.15 K | 254.24
402.15 K | 254.81
403.15 K | 255.1
404.15 K | 255.93
405.15 K | 256.5
406.15 K | 257.08
407.15 K | 257.65
408.15 K | 258.22
409.15 K | 258.78
410.15 K | 259.34
411.15 K | 259.92
412.15 K | 260.74
413.15 K | 261.25
414.15 K | 261.59
415.15 K | 261.81
416.15 K | 262.27
417.15 K | 262.78
418.15 K | 263.53
419.15 K | 264.31
420.15 K | 265.03
421.15 K | 266.54
422.15 K | 266.57
423.15 K | 267.3
424.15 K | 268.08
425.15 K | 268.84
426.15 K | 269.59
427.15 K | 270.33
428.15 K | 271.11
429.15 K | 271.85
430.15 K | 272.62
431.15 K | 273.38
432.15 K | 274.32
433.15 K | 274.91
434.15 K | 275.59
435.15 K | 275.85
436.15 K | 276.19
437.15 K | 276.7
438.15 K | 277.38
439.15 K | 277.72
440.15 K | 278.23
441.15 K | 278.83
442.15 K | 279.51
443.15 K | 280.61
444.15 K | 280.87
445.15 K | 281.12
446.15 K | 281.63
447.15 K | 282.23
448.15 K | 283.16
449.15 K | 283.84
450.15 K | 284.18
451.15 K | 285.04
452.15 K | 286.14
453.15 K | 286.82
454.15 K | 287.67
455.15 K | 288.44
456.15 K | 289.03
457.15 K | 289.8
458.15 K | 290.56
459.15 K | 291.24
460.15 K | 292.18
461.15 K | 292.86
462.15 K | 293.2
463.15 K | 293.8
464.15 K | 294.99
465.15 K | 295.67
466.15 K | 296.35
467.15 K | 297.03
468.15 K | 297.96
469.15 K | 298.9
470.15 K | 300.18
471.15 K | 301.03

From the NIST ThermoML archive (doi:10.1016/j.jct.2018.09.027)
